Broadly, the IC50 is the concentration that gives 50% inhibition.

In the test the target is His-tagged N-terminal ATP binding domain (amino acid residues 9-236) of HSP90α (Homo sapiens, UniProt P07900). Description: HSP90 inhibitor binding potency: TRF competition binding assay. As to conditions: Table I; read-out: Hsp90 IC50 Range. The method, boiled down: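 Competition against biotinylated radicicol for binding to the His-tagged 9-236 ATP domain of HSP90α: 2 h, room temperature, HEPES/MgCl2/KCl/BSA buffer. Streptavidin capture, then europium-labeled anti-His antibody and enhancement solution; europium counts give IC50.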
As to `Cc1cccc(Oc2ccccc2C2CC(=O)c3c(C)nc(N)nc3C2)c1` (stereo not shown) [Compound 135, 2-amino-4-methyl-7-[2-(3-methylphenoxy)phenyl]-7,8-dihydroquinazolin-5(6H)-one], the half-maximal inhibitory concentration (IC50) was below 1000 nM.

With `Cc1ccc(Oc2ccccc2C2CC(=O)c3c(C)nc(N)nc3C2)cc1` (stereo not shown) [Compound 136, 2-amino-4-methyl-7-[2-(4-methylphenoxy)phenyl]-7,8-dihydroquinazolin-5(6H)-one], the IC50 is above 10000 nM. Next, `Cc1nc(N)nc2c1C(=O)CC(c1ccccc1Oc1cccc(F)c1)C2` (stereo not shown) [Compound 137, 2-amino-7-[2-(3-fluorophenoxy)phenyl]-4-methyl-7,8-dihydroquinazolin-5(6H)-one]: below 1000 nM; `Cc1nc(N)nc2c1C(=O)CC(c1ccccc1Oc1ccccc1F)C2` (stereo not shown) [Compound 138, 2-amino-7-[2-(2-fluorophenoxy)phenyl]-4-methyl-7,8-dihydroquinazolin-5(6H)-one]: below 1000 nM; `Cc1nc(N)nc2c1C(=O)CC(c1ccccc1Oc1ccc(F)cc1)C2` (stereo not shown) [Compound 139, 2-amino-7-[2-(4-fluorophenoxy)phenyl]-4-methyl-7,8-dihydroquinazolin-5(6H)-one]: 1000 to 10000 nM. Turning to `Cc1nc(N)nc2c1C(=O)CC(c1ccc(F)cc1Oc1ccccc1)C2` (stereo not shown) [Compound 140, 2-amino-7-(4-fluoro-2-phenoxy-phenyl)-4-methyl-7,8-dihydro-6H-quinazolin-5-one], the IC50 was below 1000 nM. Next, `Cc1nc(N)nc2c1C(=O)CC(c1ccccc1Oc1ccccn1)C2` (stereo not shown) [Compound 141, 2-amino-4-methyl-7-[2-(pyridin-2-yloxy)phenyl]-7,8-dihydroquinazolin-5(6H)-one]: below 1000 nM; `Cc1nc(N)nc2c1C(=O)CC(c1ccccc1Oc1cncnc1)C2` (stereo not shown) [Compound 142, 2-amino-4-methyl-7-[2-(pyrimidin-5-yloxy)phenyl]-7,8-dihydroquinazolin-5(6H)-one]: below 1000 nM; `Cc1nc(N)nc2c1C(=O)CC(c1ccccc1Oc1cnccn1)C2` (stereo not shown) [Compound 143, 2-amino-4-methyl-7-[2-(pyrazin-2-yloxy)phenyl]-7,8-dihydroquinazolin-5(6H)-one]: below 1000 nM. The value for `Cc1nc(N)nc2c1C(=O)CC(c1ccccc1Oc1ncccn1)C2` (stereo not shown) [Compound 144, 2-amino-4-methyl-7-[2-(pyrimidin-2-yloxy)phenyl]-7,8-dihydroquinazolin-5(6H)-one] was 1000 to 10000 nM; that for `Cc1nc(N)nc2c1C(=O)CC(c1ccccc1Oc1cccc(F)n1)C2` (stereo not shown) [Compound 145, 2-amino-7-{2-[(6-fluoropyridin-2-yl)oxy]phenyl}-4-methyl-7,8-dihydroquinazolin-5(6H)-one] was below 1000 nM. Next, `COc1cccc(Oc2ccccc2C2CC(=O)c3c(C)nc(N)nc3C2)n1` (stereo not shown) [Compound 146, 2-amino-7-{2-[(6-methoxypyridin-2-yl)oxy]phenyl}-4-methyl-7,8-dihydroquinazolin-5(6H)-one]: below 1000 nM; `Cc1nc(N)nc2c1C(=O)CC(c1ccccc1Oc1ccnc(Cl)c1)C2` (stereo not shown) [Compound 147, 2-amino-7-{2-[(2-chloropyridin-4-yl)oxy]phenyl}-4-methyl-7,8-dihydroquinazolin-5(6H)-one]: 1000 to 10000 nM; `CCOc1ccccc1C1CC(=O)c2c(C)nc(N)nc2C1` (stereo not shown) [Compound 148, 2-amino-7-(2-ethoxy-phenyl)-4-methyl-7,8-dihydro-6H-quinazolin-5-one]: below 1000 nM. As to `Cc1nc(N)nc2c1C(=O)CC(c1ccccc1OC(C)C)C2` (stereo not shown) [Compound 149, 2-amino-7-(2-isopropoxy-phenyl)-4-methyl-7,8-dihydro-6H-quinazolin-5-one], the IC50 was below 1000 nM. The value for `Cc1nc(N)nc2c1C(=O)CC(c1ccccc1OC1CCCC1)C2` (stereo not shown) [Compound 150, 2-amino-7-(2-cyclopentyloxy-phenyl)-4-methyl-7,8-dihydro-6H-quinazolin-5-one] was below 1000 nM. The value for `CCOc1cccc(-c2cccnc2F)c1C1CC(=O)c2c(C)nc(N)nc2C1` (stereo not shown) [Compound 151, 2-amino-7-[2-ethoxy-6-(2-fluoro-pyridin-3-yl)-phenyl]-4-methyl-7,8-dihydro-6H-quinazolin-5-one] was below 1000 nM; that for `Cc1nc(N)nc2c1C(=O)CC(c1ccccc1OCCN1CCN(C)CC1)C2` (stereo not shown) [Compound 152, 2-amino-4-methyl-7-{2-[2-(4-methyl-piperazin-1-yl)-ethoxy]-phenyl}-7,8-dihydro-6H-quinazolin-5-one] was 1000 to 10000 nM; that for `Cc1nc(N)nc2c1C(=O)CC(c1c(OCCN)cccc1-c1cccnc1F)C2` (stereo not shown) [Compound 153, 2-amino-7-[2-(2-amino-ethoxy)-6-(2-fluoro-pyridin-3-yl)-phenyl]-4-methyl-7,8-dihydro-6H-quinazolin-5-one] was below 1000 nM.

Take `Cc1nc(N)nc2c1C(=O)CC(c1c(Cl)cccc1OCCN1CCN(C)CC1)C2` (stereo not shown) [Compound 154, 2-amino-7-{2-chloro-6-[2-(4-methyl-piperazin-1-yl)-ethoxy]-phenyl}-4-methyl-7,8-dihydro-6H-quinazolin-5-one]: the IC50 was above 10000 nM.

With `Cc1nc(N)nc2c1C(=O)CC(c1c(OCCN3CCCCC3)cccc1-c1cccnc1F)C2` (stereo not shown) [Compound 155, 2-amino-7-[2-(2-fluoro-pyridin-3-yl)-6-(2-piperidin-1-yl-ethoxy)-phenyl]-4-methyl-7,8-dihydro-6H-quinazolin-5-one], the 50% inhibitory concentration (IC50) was below 1000 nM. Turning to `Cc1nc(N)nc2c1C(=O)CC(c1c(OCCN3CCNCC3)cccc1-c1cccnc1F)C2` (stereo not shown) [Compound 156, 2-amino-7-[2-(2-fluoro-pyridin-3-yl)-6-(2-piperazin-1-yl-ethoxy)-phenyl]-4-methyl-7,8-dihydro-6H-quinazolin-5-one], the IC50 was below 1000 nM.

Turning to `Cc1nc(N)nc2c1C(=O)CC(c1c(OCCN3CCOCC3)cccc1-c1cccnc1F)C2` (stereo not shown) [Compound 157, 2-amino-7-[2-(2-fluoro-pyridin-3-yl)-6-(2-morpholin-4-yl-ethoxy)-phenyl]-4-methyl-7,8-dihydro-6H-quinazolin-5-one], the IC50 is below 1000 nM. For `Cc1nc(N)nc2c1C(=O)CC(c1c(OCCN3CCN(C)CC3)cccc1-c1cccnc1F)C2` (stereo not shown) [Compound 158, 2-amino-7-{2-(2-fluoro-pyridin-3-yl)-6-[2-(4-methyl-piperazin-1-yl)-ethoxy]-phenyl}-4-methyl-7,8-dihydro-6H-quinazolin-5-one], the concentration for half-maximal inhibition (IC50) was below 1000 nM. Next, `Cc1nc(N)nc2c1C(=O)CC(c1cccc3ccccc13)C2` (stereo not shown) [Compound 159, 2-amino-4-methyl-7-(1-naphthyl)-7,8-dihydroquinazolin-5(6H)-one]: 1000 to 10000 nM. As for `Cc1nc(N)nc2c1C(=O)CC(c1cccnc1)C2` (stereo not shown) [Compound 160, 2-amino-4-methyl-7-pyridin-3-yl-7,8-dihydroquinazolin-5(6H)-one], the concentration for half-maximal inhibition (IC50) was above 10000 nM. Take `Cc1nc(N)nc2c1C(=O)CC(c1cnccc1-c1ccccc1)C2` (stereo not shown) [Compound 161, 2-amino-4-methyl-7-(4-phenylpyridin-3-yl)-7,8-dihydroquinazolin-5(6H)-one]: the IC50 is below 1000 nM. With `Cc1nc(N)nc2c1C(=O)CC(c1ccccc1CCc1ccccc1)C2` (stereo not shown) [Compound 162, 2-amino-4-methyl-7-[2-(2-phenylethyl)phenyl]-7,8-dihydroquinazolin-5(6H)-one], the half-maximal inhibitory concentration (IC50) was above 10000 nM.

These data come from patent publication US20070027150A1 (priority 2005, published 2007).
